Results: patent US20260042764A1, “COMPOSITIONS AND METHODS FOR INHIBITION OF KRAS” (TheRas, Inc., priority 2022, published 2026)

Columns and labels:
[1] = test system: MKN1 cells (KRAS amplification); assay: Cell-based pERK HTRF assay in MKN1 cells (Biological Example 5)
Description: (§1) Biological Example 5: Cell-based PERK HTRF assay in AsPC-1, SW1900, HPAC, Capan-2, RKN, H358, HCT116, KP-2, H1573, A549, MKN1, and HT1080 cells
(§2) The inhibition of ERK phosphorylation, as measured using the HTRF Advanced Phospho-ERK 1/2 (Thr202/Tyr204) Detection Assay kit (Perkin Elmer), was used to determine the effectiveness of test compounds in disrupting KRAS-driven protein/effector signaling in cells.
(§3) On day 1, cells were seeded into 96-well plates at 2.5×10^4 cells/well in 100 μL of complete growth media supplemented with 10% fetal bovine serum (FBS) and incubated at 37° C., in the presence of 5% CO2.
(§4) On day 2, cells were treated with compounds diluted in DMSO at 0.25% final DMSO concentration. Compounds were dosed in a 9-point concentration curve with three-fold dilution between concentrations. Cells were incubated in the presence of compound for two hours at 37° C. Following this treatment period, cells were harvested by aspirating the media, adding 40 μL of kit-supplied 1x lysis buffer per well, and shaking for 30 minutes at 250 rpm at room temperature.
(§5) Following cell lysis, samples were homogenized by pipetting up and down twenty times and 16 μL of cell lysate per well was transferred from the 96-well cell culture plate to two wells of a 384-well detection plate. A complete detection buffer was prepared by diluting D2 and Eu Cryptate antibodies 1:20 in kit-provided detection solution, 4 μL of complete detection buffer was then added to each well with lysate. Plates were incubated with gentle rocking for 24 hours at 4° C.
(§6) Following this incubation period, plates were centrifuged at 500×g for one minute and analyzed on a CLARIOstar plate reader. Data was imported into Microsoft Excel and the signal from the 665 nm channel was divided by the signal from the 620 nm channel. % pERK was calculated as: […]
(§7) Data was imported to the Prism software package (Graphpad) and EC50 values were calculated using the log (inhibitor) vs, response—variable slopc (Four parameters) model.

[2] = test system: RKN cells (KRAS G12V); assay: 3D Cell viability assay in RKN cells (Biological Example 6); format: cell-based; conditions: RKN (KRAS G12V) spheroids, 72 hours
Description: (§8) Biological Example 6: 3D Cell viability assay in AsPC-1, SW1900, HPAC, Capan-2, RKN, H358, HCT116, KP-2, H1573, A549, MKN1, and HT1080 cells
(§9) The inhibition of cellular viability as a result of test compound treatment in a spheroid assay was measured using the CellTiter-Glow 3D Cell Viability Assay (Promega).
(§10) On Day 1, 1000 cells per well were seeded in 150 μL of complete growth media supplemented with 10% fetal bovine serum (FBS) and incubated at 37° C., in the presence of 5% CO2 in 96-well ultra-low attachment microplates (Corning) for 48 hours undisturbed to allow spheroids to form.
(§11) Following spheroid formation, cells were treated with compounds diluted in DMSO at 0.25% final DMSO concentration. Compounds were dosed in a 9-point concentration curve with three-fold dilution between concentrations. Cells were incubated in the presence of compound for 72 hours at 37° C., in the presence of 5% CO2.
(§12) Following this incubation period, the kit-provided CTG reagent was allowed to equilibrate for 30 minutes at room temperature, 150 μL of equilibrated CTG reagent was added to each well, and the plate was sealed before shaking at 250 rpm for 10 minutes at room temperature to lyse the cells, 150 μL of lysate per well was transferred to a 96-well plate and luminescence was read on a CLARIOstar plate reader.
(§13) Data was imported into the Prism software package (Graphpad) and EC50 values were calculated using the log (inhibitor) vs, response—variable slope (Four parameters) model.

[3] = test system: AsPC-1 cells (KRAS G12D); assay: Cell-based pERK HTRF assay in AsPC-1 cells (Biological Example 5)
Description: as §1, §2, §3, §4, §5, §6, §7

[4] = test system: SW1900 cells (KRAS G12D); assay: Cell-based pERK HTRF assay in SW1900 cells (Biological Example 5)
Description: as §1, §2, §3, §4, §5, §6, §7

[5] = test system: Capan-2 cells (KRAS G12V); assay: 3D Cell viability assay in Capan-2 cells (Biological Example 6); format: cell-based; conditions: Capan-2 (KRAS G12V) spheroids, 72 hours
Description: as §8, §9, §10, §11, §12, §13

[6] = test system: SW1900 cells (KRAS G12D); assay: 3D Cell viability assay in SW1900 cells (Biological Example 6); format: cell-based; conditions: SW1990 (text: SW1900, KRAS G12D) spheroids, 72 hours
Description: as §8, §9, §10, §11, §12, §13

[7] = test system: MKN1 cells (KRAS amplification); assay: 3D Cell viability assay in MKN1 cells (Biological Example 6); format: cell-based; conditions: MKN (MKN1, KRAS amplification) spheroids, 72 hours
Description: as §8, §9, §10, §11, §12, §13

[8] = test system: Capan-2 cells (KRAS G12V); assay: Cell-based pERK HTRF assay in Capan-2 cells (Biological Example 5)
Description: as §1, §2, §3, §4, §5, §6, §7

[9] = test system: HCT116 cells (KRAS G13D); assay: 3D Cell viability assay in HCT116 cells (Biological Example 6); format: cell-based; conditions: Homo sapiens, HCT-116; HCT116 (KRAS G13D) spheroids, 72 hours
Description: as §8, §9, §10, §11, §12, §13

[10] = test system: HPAC cells (KRAS G12D); assay: Cell-based pERK HTRF assay in HPAC cells (Biological Example 5); conditions: Homo sapiens, HPAC
Description: as §1, §2, §3, §4, §5, §6, §7

[11] = test system: HT1080 cells (NRAS); assay: Cell-based pERK HTRF assay in HT1080 cells (Biological Example 5); conditions: Homo sapiens, HT-1080
Description: as §1, §2, §3, §4, §5, §6, §7

[12] = test system: HT1080 cells (NRAS); assay: 3D Cell viability assay in HT1080 cells (Biological Example 6); format: cell-based; conditions: Homo sapiens, HT-1080; HT1080 (NRAS) spheroids, 72 hours
Description: as §8, §9, §10, §11, §12, §13

[13] = Homo sapiens, MKN-1, MKN cells (MKN1, KRAS amplification)
[14] = Homo sapiens, ASPC1, AsPC-1 (KRAS G12D) cells
[15] = Homo sapiens, SW1990, SW1990 cells (text: SW1900, KRAS G12D)
[16] = Homo sapiens, Capan-2, Capan-2 (KRAS G12V) cells

SMILES	IC50 [1, 13] [nM]	IC50 [3, 14] [nM]	IC50 [4, 15] [nM]	IC50 ([6]; Homo sapiens) [nM]	IC50 ([7]; Homo sapiens, MKN-1) [nM]	IC50 [8, 16] [nM]	IC50 [9] [nM]	IC50 [10] [nM]	IC50 [11] [nM]	IC50 [12] [nM]	IC50 ([1]; MKN cells (MKN1, KRAS amplification)) [nM]	IC50 ([3]; AsPC-1 (KRAS G12D) cells) [nM]	IC50 ([4]; SW1990 cells (text: SW1900, KRAS G12D)) [nM]	IC50 [6] [nM]	IC50 [7] [nM]	IC50 ([8]; Capan-2 (KRAS G12V) cells) [nM]	IC50 [2] [nM]	IC50 ([5]; Homo sapiens) [nM]	IC50 [5] [nM]
CCN(c1nc(OC[C@@]23CCCN2C[C@H](F)C3)nc2c(F)c(-c3ccc(F)c4sc(N)c(C#N)c34)c(C(F)(F)F)cc12)[C@H]1C[C@H](COC)N(C(=O)C2CC2)C1 (atropisomer, axis not shown) [Compound 696]	≤ 100	≤ 100	≤ 100	≤ 100	≤ 100	≤ 100	100 to 1000	–	–	–	–	–	–	–	–	–	≤ 100	≤ 100	–
C[C@H]1Cn2nc(C(=O)N(C)C)cc2CN1c1nc(OC[C@@]23CCCN2C[C@H](F)C3)nc2c(F)c(-c3ccc(F)c4sc(N)c(C#N)c34)c(C(F)(F)F)cc12 (atropisomer, axis not shown) [Compound 610]	≤ 100	≤ 100	≤ 100	≤ 100	≤ 100	≤ 100	–	≤ 100	–	–	–	–	–	–	–	–	≤ 100	≤ 100	–
CCN(c1nc(OC[C@@]23CCCN2C[C@H](F)C3)nc2c(F)c(-c3ccc(F)c4sc(N)c(C#N)c34)c(C(F)(F)F)cc12)[C@H]1CCN(C(=O)N2CC(F)C2)C1 (atropisomer, axis not shown) [Compound 606]	≤ 100	≤ 100	≤ 100	≤ 100	≤ 100	≤ 100	–	≤ 100	–	–	–	–	–	–	–	–	≤ 100	≤ 100	–
CCN(c1nc(OC[C@@]23CCCN2C[C@H](F)C3)nc2c(F)c(-c3ccc(F)c4sc(N)c(C#N)c34)c(C(F)(F)F)cc12)[C@H]1CCN(C(=O)C2CC2)[C@@H]1C (atropisomer, axis not shown) [Compound 579]	≤ 100	≤ 100	≤ 100	≤ 100	≤ 100	≤ 100	–	> 1000	–	–	–	–	–	–	–	–	≤ 100	≤ 100	–
CCN(c1nc(OC[C@@]23CCCN2C[C@H](F)C3)nc2c(F)c(-c3ccc(F)c4sc(N)c(C#N)c34)c(C(F)(F)F)cc12)[C@H]1CCN(C(=O)c2ncco2)C1 (atropisomer, axis not shown) [Compound 584]	≤ 100	≤ 100	≤ 100	≤ 100	≤ 100	≤ 100	–	100 to 1000	–	–	–	–	–	–	–	–	≤ 100	≤ 100	–
CCN(c1nc(OC[C@@]23CCCN2C[C@H](F)C3)nc2c(F)c(-c3ccc(F)c4sc(N)c(C#N)c34)c(C(F)(F)F)cc12)[C@H]1C[C@H](C)N(C(=O)N2CC(OC)C2)C1 (atropisomer, axis not shown) [Compound 764]	≤ 100	≤ 100	≤ 100	≤ 100	≤ 100	≤ 100	–	100 to 1000	–	–	–	–	–	–	–	–	≤ 100	≤ 100	–
CCN(c1nc(OC[C@@]23CCCN2C[C@H](F)C3)nc2c(F)c(-c3ccc(F)c4sc(N)c(C#N)c34)c(C(F)(F)F)cc12)[C@H]1CC(=O)N2CCC[C@@H]12 (atropisomer, axis not shown; (aS)) [Compound 697, 2-amino-4-((S)-4-(ethyl((1S,7aS)-3-oxohexahydro-1H-pyrrolizin-1-yl)amino)-8-fluoro-2-(((2R,7aS)-2-fluorotetrahydro-1H-pyrrolizin-7a(5H)-yl)methoxy)-6-(trifluoromethyl)quinazolin-7-yl)-7-fluorobenzo[b]thiophene-3-carbonitrile]	≤ 100	≤ 100	≤ 100	≤ 100	≤ 100	≤ 100	100 to 1000	≤ 100	–	–	–	–	–	–	–	–	≤ 100	≤ 100	–
C/C=C/C(=O)N1CC[C@H](N(CC)c2nc(OC[C@@]34CCCN3C[C@H](F)C4)nc3c(F)c(-c4ccc(F)c5sc(N)c(C#N)c45)c(C(F)(F)F)cc23)C1 (atropisomer, axis not shown) [Compound 674]	≤ 100	≤ 100	≤ 100	≤ 100	≤ 100	≤ 100	–	≤ 100	–	–	–	–	–	–	–	–	≤ 100	≤ 100	–

Continued, in another order:

IC50 [1, 13] [nM]	IC50 [3, 14] [nM]	IC50 [4, 15] [nM]	IC50 ([6]; Homo sapiens) [nM]	IC50 ([7]; Homo sapiens, MKN-1) [nM]	IC50 [8, 16] [nM]	IC50 [9] [nM]	IC50 [10] [nM]	IC50 [11] [nM]	IC50 [12] [nM]	IC50 ([1]; MKN cells (MKN1, KRAS amplification)) [nM]	IC50 ([3]; AsPC-1 (KRAS G12D) cells) [nM]	IC50 ([4]; SW1990 cells (text: SW1900, KRAS G12D)) [nM]	IC50 [6] [nM]	IC50 [7] [nM]	IC50 ([8]; Capan-2 (KRAS G12V) cells) [nM]	SMILES	IC50 [2] [nM]	IC50 ([5]; Homo sapiens) [nM]	IC50 [5] [nM]
≤ 100	≤ 100	≤ 100	≤ 100	≤ 100	≤ 100	–	100 to 1000	–	–	–	–	–	–	–	–	CCN(c1nc(OC[C@@]23CCCN2C[C@H](F)C3)nc2c(F)c(-c3ccc(F)c4sc(N)c(C#N)c34)c(C(F)(F)F)cc12)[C@H]1C[C@@H](C)N(C(=O)C2COC2)C1 (atropisomer, axis not shown) [Compound 586]	≤ 100	≤ 100	–
≤ 100	100 to 1000	≤ 100	≤ 100	≤ 100	≤ 100	–	100 to 1000	> 1000	> 1000	–	–	–	–	–	–	CCN(c1nc(OC[C@@]23CCCN2C[C@H](F)C3)nc2c(F)c(-c3ccc(F)c4sc(N)c(C#N)c34)c(C(F)(F)F)cc12)[C@H]1C[C@H](C)N(C(C)=O)C1 [Compound 463]	–	≤ 100	–
≤ 100	≤ 100	≤ 100	≤ 100	≤ 100	≤ 100	–	–	–	–	–	–	–	–	–	–	CCN(c1nc(OC[C@@]23CCCN2C[C@H](F)C3)nc2c(F)c(-c3ccc(F)c4sc(N)c(C#N)c34)c(C(F)(F)F)cc12)[C@H]1C[C@H](C)N(C(=O)OC)C1 (atropisomer, axis not shown) [Compound 704]	≤ 100	≤ 100	–
–	–	–	–	–	–	–	–	–	–	≤ 100	≤ 100	≤ 100	≤ 100	≤ 100	≤ 100	CCN(c1nc(OCC23CCCN2CC(F)C3)nc2c(F)c(-c3ccc(F)c4sc(N)c(C#N)c34)c(C(F)(F)F)cc12)C1CC(C)N(C(=O)N2CC(F)C2)C1 (stereo not drawn) [Compound 759]	≤ 100	–	≤ 100
